Measurements taken from patent US20080255121A1, “Combination Drug for Treating Autoimmune Disease” (DAINIPPON SUMITOMO PHARMA CO., LTD., priority 2004, published 2008).

What was measured:
human CaMKII γ = experiment: Examination of CaMKII inhibitory activity (2); format: biochemical
Description: Test substances were dissolved in DMSO and diluted to various concentrations with a buffer solution (50 mM Tris-HCl: pH 7.5, 10 mM MgCl2, 1 mM Dithiothreitol (DTT)) (all of them are available from Nacalai Tesque, Inc.) for CaMKII reaction. CaMKIIα (final concentration 0.75 μg/ml) (Santa Cruz, Inc.) derived from rat was mixed with Autocamtide-2® (40 μM) (CALBIOCHEM Company) dissolved in CaMKII reaction buffer solution in the presence of the test substance and with CaMKII activation buffer solution (1 mMCaCl2, 1 μM calmodulin) (Nacalai Tesque, Inc.) and the reaction was started by further adding ATP (50 μM) (Nacalai Tesque, Inc.). The reaction was performed at 30° C. for five minutes and then SDS-PAGE sample buffer solution was added and the reaction was terminated by boiling for five minutes. Proteins in the reaction mixture were separated by 15% SDS-PAGE and blotted onto a PVDF membrane. Phosphorus taken in by Autocamtide-2 was reacted with an anti-phosphorylated serine/threonine antibody (Santa Cruz, Inc.) and quantified by ECL system (Amersham, Inc.) and NIH Image (downloadable from http://rsb.info.nih.gov/nih-image/).
CaMKII γ gene was prepared by PCR method using two kinds of primers (5′-TC GGATCCAGCATGGCCACCACCGCCACCTG-3′ [SEQ ID NO 4] and 5′-TA GAATTCACACTGCAGCGGTGCGGCAGG [SEQ ID NO 5]) synthesized based on the sequence of GenBank Accession No. L07044 and cDNA derived from cultured cells (JurketT cells) prepared by a conventional method as a template. The CaMKII γ gene was excised by BamHI and EcoRI and introduced into the MCS of pFastBacl transfer vector. Expression virus was prepared and amplified based on this vector. The details followed the manual of Bac-to-Bac baculovirus expression system (Invitrogen, Inc.). Expressed CaMKII γ was purified in accordance with the method described in literature (Biochemical & Biophysical Research Communications, 173(2): 578-84, 1990). That is, expression cells were pulverized by supersonic wave and preparation was performed by affinity refinement with calmodulin sepharose (Amasham Biosciences, Inc.) from cell soluble fraction obtained by centrifugal operation via ammonium sulfate fraction of final concentration of 60%. Confirmation of expression was performed by Western blotting method using anti-CaMKII γ specific antibody, sc1541 (Santa Cruz, Inc.).
CaMKII γ inhibitory activity of test substances were measured in the same conditions as in Example 1 except human CaMKII γ prepared by the above procedure was used in place of CaMKII α derived from rat.

EL-4 cells = experiment: IL-2 production when T-lymphocytes were stimulated with PMA and A23187; format: cell-based, mouse; settings: Compound (I) 1 to 30 μM, KN-93 1 to 10 μM; 20 hours; FIG. 1
Description: Effects of Compound (I) and KN-93 on IL-2 production when T-lymphocytes were stimulated with Phorbol 12-myristate 13-acetate (PMA) and Calcium Ionophore A23187 were evaluated.
EL-4 cells (mouse T-lymphocyte cell line) were cultured in Dulbecco's Modified Eagle Medium (DMEM: GIBCO, Inc.) containing 10% fetal bovine serum and subjected to the experiment. The cells were disseminated in 96-well plate in a ratio of 5×10^4 cells/well and a DMEM medium containing the test substance and a DMEM medium containing PMA and A23187 as a stimulant were added and incubated for 20 hours. The concentration was adjusted so that the final concentrations of the test substances and stimulants were 1 to 30 μM for Compound (I), 1 to 10 μM for KN-93, 25 ng/ml for PMA and 250 ng/ml for A23187. The plate was centrifuged after incubation and the supernatant was collected with micropipette. The concentration of IL-2 in the supernatant was quantified by Enzyme-linked Immunosorbent Assay (ELISA) method. The quantitative method was carried out in accordance with the instructions attached to the kit (MOUSE IL-2 Immunoassay, R & D Systems).

L929 cells = experiment: Proliferation of fibroblasts stimulated with bFGF (Brd-U uptake); format: cell-based, mouse; settings: Compound (I) 0.3 to 10 μM, KN-93 1 to 30 μM; FIG. 3
Description: Effects of Compound (I) and KN-93 on the proliferation of fibroblasts when the fibroblasts were stimulated with basic fibroblast growth factor (bFGF) were evaluated.
L929 cells (mouse fibroblast cell line) were cultured in MEM-Earl medium (E-MEM: GIBCO, Inc.) containing 10% fetal bovine serum and subjected to the experiment. The cells were suspended in a serum-free E-MEM and disseminated in 96-well plate in a ratio of 2×10^4 cells/well and incubated for 72 hours. An E-MEM medium containing the test substance was added and incubated for 1 hour, and an E-MEM medium containing recombinant human FGF basic (bFGF) as a stimulant was added and incubated for 20 hours. 5-Bromo2′-deoxyuridine (Brd-U) solution was added to each well and incubated at 37° C. for further four hours. The cells were fixed and uptake of Brd-U was detected by Cell proliferation ELISA system (Amersham) and absorbance at 450 nm was measured with a microplate reader. This value of absorbance was used as an index of cell proliferation.

Akt = experiment: Phosphorylation of Akt in bFGF stimulated fibroblasts (Western blotting); format: cell-based, mouse; settings: Compound (I) 20 μM, KN-93 20 μM; L929 cells; FIG. 19
Description: Effects of Compound (I) and KN-93 on effect on the expression of cyclin D1 and the phosphorylation of Akt when fibroblasts were stimulated with basic fibroblast growth factor (bFGF) were evaluated.
L929 cells (mouse fibroblast cell line) were cultured in MEM-Earl medium (E-MEM: GIBCO, Inc.) containing 10% fetal bovine serum and subjected to the experiment. The cells were suspended in a serum-free E-MEM and cultured for 72 hours. An E-MEM medium containing the test substance was added and incubated for 1 hour, and an E-MEM medium containing recombinant human FGF basic (bFGF) as a stimulant was added and further incubated. The cells were lysed in a RIPA buffer and a total cell lysate was obtained. After performing SDS-PAGE, proteins were transferred onto a PVDF membrane and western blotting was performed with anti-cyclin antibody or anti-Akt antibody (both available from Santa Cruz, Inc.).

SMILES | concentration with an effect of inhibiting the activity of CaMKII (human CaMKII γ) [µM] | Inhibition rate (%) (human CaMKII γ; Concentration 1 μm) | Inhibition rate (%) (human CaMKII γ; Concentration 10 μm) | Inhibition rate (%) (human CaMKII γ; Concentration 30 μm) | production of IL-2 (EL-4 cells) | proliferation of fibroblasts (L929 cells) | phosphorylation of Akt (Akt)
C[C@@H](c1ccc(-c2ccccc2)c(F)c1)c1cc(/N=C(/N)N2CCOCC2)on1 [Compound (I), 3-[(1S)-1-(2-fluorobiphenyl-4-yl)ethyl]-5-{[amino(morpholin-4-yl)methylene]amino}isoxazole] | ≥ 10 | 7 | 33 | 57 | suppressed production of IL-2 dose-dependently | dose-dependently suppressed the proliferation of fibroblasts | suppressed the phosphorylation of Akt
COc1ccc(S(=O)(=O)N(CCO)c2ccccc2CN(C)C/C=C/c2ccc(Cl)cc2)cc1 [KN-93, N-(2-[N-[4-chlorocinnamyl]-N-methylaminomethyl]phenyl)-N-(2-hydroxyethyl)-4-methoxybenzenesulfonamide, reference compound] | ≥ 1 | 27 | 101 | 107 | suppressed production of IL-2 dose-dependently | dose-dependently suppressed the proliferation of fibroblasts | suppressed the phosphorylation of Akt
